We go through 10 molecules from PubChem BioAssay AID1259407 (Chemical Carcinogenesis Research Information System (CCRIS), 2018).

The source made the active and inactive calls. The rule behind the calls is not given here. Where a SMILES comes first, the peptide text is derived from it. [ ]: non-standard residue; d: D form. pGlu = O=C1CC[C@@H](C(=O)O)N1; Thz = O=C(O)[C@@H]1CSCN1

The data set relates to CCRIS mutagenicity, Ames/micronucleus/aberration tests. As to the kind of experiment: CCRIS mutagenicity studies.
The mark [1] stands for this setting: Test System: AMES SALMONELLA TYPHIMURIUM, Strain/Indicator: TA98, Metabolic Activation: NONE, Method: STANDARD PLATE.
The mark [2] stands for this setting: Test System: AMES SALMONELLA TYPHIMURIUM, Strain/Indicator: TA98, Metabolic Activation: RAT, LIVER, S-9, AROCLOR 1254, Method: STANDARD PLATE.
Where [3] appears, read: Test System: AMES SALMONELLA TYPHIMURIUM, Strain/Indicator: TA100, Metabolic Activation: RAT, LIVER, S-9, AROCLOR 1254, Method: STANDARD PLATE.
The mark [4] stands for this setting: Test System: AMES SALMONELLA TYPHIMURIUM, Strain/Indicator: TA1535, Metabolic Activation: NONE, Method: STANDARD PLATE.
Setting [5] is: Test System: AMES SALMONELLA TYPHIMURIUM, Strain/Indicator: TA1535, Metabolic Activation: RAT, LIVER, S-9, AROCLOR 1254, Method: STANDARD PLATE.
[6] abbreviates: Test System: AMES SALMONELLA TYPHIMURIUM, Strain/Indicator: TA1537, Metabolic Activation: NONE, Method: STANDARD PLATE.
[7] abbreviates: Test System: AMES SALMONELLA TYPHIMURIUM, Strain/Indicator: TA1537, Metabolic Activation: RAT, LIVER, S-9, AROCLOR 1254, Method: STANDARD PLATE.
Where [8] appears, read: Test System: AMES SALMONELLA TYPHIMURIUM, Strain/Indicator: TA100, Metabolic Activation: NONE, Method: STANDARD PLATE.
[9] abbreviates: Test System: AMES SALMONELLA TYPHIMURIUM, Strain/Indicator: TA100, Metabolic Activation: S-9, Method: STANDARD PLATE.

As to `C=CCC1=C(C)C(OC(=O)[C@@H]2[C@@H](C=C(C)C)C2(C)C)CC1=O` (stereo not given in full), the mutagenic call is “active; positive” (Test System: AMES SALMONELLA TYPHIMURIUM, Strain/Indicator: TA97, Metabolic Activation: NONE, Method: STANDARD PLATE); “active; positive” (Test System: AMES SALMONELLA TYPHIMURIUM, Strain/Indicator: TA97, Metabolic Activation: RAT, LIVER, S-9, PHENOBARBITONE, Method: STANDARD PLATE); “active; positive” (Test System: AMES SALMONELLA TYPHIMURIUM, Strain/Indicator: TA98); “inactive; negative” (Test System: AMES SALMONELLA TYPHIMURIUM, Strain/Indicator: TA98, Metabolic Activation: NONE); “inactive; negative” (Test System: AMES SALMONELLA TYPHIMURIUM, Strain/Indicator: TA98, Metabolic Activation: NONE, Method: MICROSUSPENSION); “inactive; negative” under setting [1]. Moreover, the mutagenic call is, setting by setting: under setting [2], “inactive; negative”; (Test System: AMES SALMONELLA TYPHIMURIUM, Strain/Indicator: TA98, Metabolic Activation: RAT, LIVER, S-9, PHENOBARBITONE, Method: STANDARD PLATE) “inactive; negative”; (Test System: AMES SALMONELLA TYPHIMURIUM, Strain/Indicator: TA98, Metabolic Activation: S-9, Method: MICROSUSPENSION) “inactive; negative”; (Test System: AMES SALMONELLA TYPHIMURIUM, Strain/Indicator: TA100) “active; positive”; (Test System: AMES SALMONELLA TYPHIMURIUM, Strain/Indicator: TA100, Metabolic Activation: NONE) “active; positive”; (Test System: AMES SALMONELLA TYPHIMURIUM, Strain/Indicator: TA100, Metabolic Activation: NONE, Method: MICROSUSPENSION) “inactive; negative”. Besides, the mutagenic call is, setting by setting: under setting [3], “active; positive”; (Test System: AMES SALMONELLA TYPHIMURIUM, Strain/Indicator: TA100, Metabolic Activation: RAT, LIVER, S-9, PHENOBARBITONE, Method: STANDARD PLATE) “active; positive”; (Test System: AMES SALMONELLA TYPHIMURIUM, Strain/Indicator: TA100, Metabolic Activation: S-9, Method: MICROSUSPENSION) “inactive; negative”; (Test System: AMES SALMONELLA TYPHIMURIUM, Strain/Indicator: TA100, Metabolic Activation: S-9 MIX, Method: STANDARD PLATE) “active; positive”; (Test System: AMES SALMONELLA TYPHIMURIUM, Strain/Indicator: TA104, Metabolic Activation: NONE, Method: STANDARD PLATE) “inactive; negative”; (Test System: AMES SALMONELLA TYPHIMURIUM, Strain/Indicator: TA104, Metabolic Activation: RAT, LIVER, S-9, PHENOBARBITONE, Method: STANDARD PLATE) “active; positive”. The mutagenic call was “inactive; negative” under setting [4]; “inactive; negative” under setting [5]; “inactive; negative” under setting [6]; “inactive; negative” under setting [7]; “inactive; negative” (Test System: E. COLI, Strain/Indicator: WP2, Metabolic Activation: NONE, Method: STANDARD PLATE); “inactive; negative” (Test System: E. COLI, Strain/Indicator: WP2, Metabolic Activation: RAT, LIVER, S-9, AROCLOR 1254, Method: STANDARD PLATE).

As to `CCCCC(=O)Nc1snc2ccc(Cl)cc12`, the mutagenic call by setting is: under setting [8], “inactive; negative”; under setting [9], “inactive; negative”; under setting [6], “inactive; negative”; (Test System: AMES SALMONELLA TYPHIMURIUM, Strain/Indicator: TA1537, Metabolic Activation: S-9, Method: STANDARD PLATE) “inactive; negative”.

Take `CCC(C)OS(C)(=O)=O` (stereo not given): the mutagenic call runs as follows: (End Point: IN VITRO MICRONUCLEUS, Test System: MOUSE LYMPHOMA L5178Y CELLS, Metabolic Activation: NONE) “active; positive”; (End Point: IN VITRO MICRONUCLEUS, Test System: MOUSE LYMPHOMA L5178Y CELLS, Metabolic Activation: RAT, LIVER, S-9) “active; positive”; under setting [1], “active; positive”; (Test System: AMES SALMONELLA TYPHIMURIUM, Strain/Indicator: TA98, Metabolic Activation: RAT, LIVER, S-9, Method: STANDARD PLATE) “active; positive”; under setting [8], “active; positive”; (Test System: AMES SALMONELLA TYPHIMURIUM, Strain/Indicator: TA100, Metabolic Activation: RAT, LIVER, S-9, Method: STANDARD PLATE) “active; positive”. In addition, the mutagenic call by setting is: under setting [4], “active; positive”; (Test System: CHINESE HAMSTER V-79, Strain/Indicator: V-79/6-THIOGUANINE, Metabolic Activation: NONE) “active; positive”.

For the molecule `O=C1CC[C@@H](C(=O)N2CSC[C@H]2C(=O)O)N1` ([pGlu]-[Thz]-OH), the mutagenic call under setting [1] was “inactive; negative”; the mutagenic call under setting [2] was “inactive; negative”; the mutagenic call under setting [8] is “inactive; negative”; the mutagenic call under setting [3] is “inactive; negative”; the mutagenic call under setting [4] is “inactive; negative”; the mutagenic call under setting [5] is “inactive; negative”. The mutagenic call under setting [6] is “inactive; negative”; the mutagenic call under setting [7] was “inactive; negative”; the mutagenic call (Test System: AMES SALMONELLA TYPHIMURIUM, Strain/Indicator: TA1538, Metabolic Activation: NONE, Method: STANDARD PLATE) was “inactive; negative”; the mutagenic call (Test System: AMES SALMONELLA TYPHIMURIUM, Strain/Indicator: TA1538, Metabolic Activation: RAT, LIVER, S-9, AROCLOR 1254, Method: STANDARD PLATE) was “inactive; negative”; the mutagenic call (Test System: MOUSE LYMPHOMA, Strain/Indicator: L5178Y (TK+/TK-), Metabolic Activation: NONE, Method: SUSPENSION/PLATE) was “inactive; negative”; the mutagenic call (Test System: MOUSE LYMPHOMA, Strain/Indicator: L5178Y (TK+/TK-), Metabolic Activation: RAT, LIVER, S-9, AROCLOR 1254, Method: SUSPENSION/PLATE) was “inactive; negative”. Further, the mutagenic call (Test System: UDS HELA CELLS, Strain/Indicator: THY INCORP, Metabolic Activation: NONE, Method: AUTORADIOGRAPHY) is “inactive; negative” and the mutagenic call (Test System: UDS HELA CELLS, Strain/Indicator: THY INCORP, Metabolic Activation: RAT, LIVER, S-9, AROCLOR 1254, Method: AUTORADIOGRAPHY) was “inactive; negative”.

For `C=Cc1ccc([N+](=O)[O-])cc1`, the mutagenic call is “active; positive” under setting [1], “active; positive” under setting [2], “active; positive” under setting [8] and “active; positive” under setting [3].

As for `c1ccc(CN2CCN=N2)cc1`, the mutagenic call under setting [4] was “active; positive”.

For `O=C(O)Cc1ccc([N+](=O)[O-])cc1`, the mutagenic call is, setting by setting: (Test System: AMES SALMONELLA TYPHIMURIUM, Strain/Indicator: TA98, Metabolic Activation: NONE, Method: PREINCUBATION) “active; positive”; (Test System: AMES SALMONELLA TYPHIMURIUM, Strain/Indicator: TA100, Metabolic Activation: NONE, Method: PREINCUBATION) “active; positive”; (Test System: AMES SALMONELLA TYPHIMURIUM, Strain/Indicator: TA1535, Metabolic Activation: NONE, Method: PREINCUBATION) “inactive; negative”; (Test System: AMES SALMONELLA TYPHIMURIUM, Strain/Indicator: TA1537, Metabolic Activation: NONE, Method: PREINCUBATION) “inactive; negative”; (Test System: AMES SALMONELLA TYPHIMURIUM, Strain/Indicator: TA1538, Metabolic Activation: NONE, Method: PREINCUBATION) “inactive; negative”.

On to `CC(C)(C)c1cc(-c2ccccc2)ccc1N=O`, for which the mutagenic call under setting [1] is “active; positive”; the mutagenic call (Test System: AMES SALMONELLA TYPHIMURIUM, Strain/Indicator: TA98, Metabolic Activation: S-9, Method: STANDARD PLATE) is “active; positive”; the mutagenic call under setting [8] was “active; positive”; the mutagenic call under setting [9] was “active; positive”.

`Oc1cccc2c1-c1cc3cccc4ccc5ccc-2c1c5c43`: the mutagenic call under setting [3] is “active; positive”.

In the case of `O=Nn1cc(CCO)c2ccccc21`, the mutagenic call is “active; positive” (Test System: AMES SALMONELLA TYPHIMURIUM, Strain/Indicator: TA97A, Metabolic Activation: NONE, Method: STANDARD PLATE); “active; positive” under setting [1]; “active; positive” under setting [8]; “active; positive” under setting [4]; “active; positive” under setting [6].
